The test system of the assay is Human Trabecular Meshwork (HTM) cells. The assay can be described thus: Expression of MYLK-4 in HTM cells by Western blotting. The conditions noted are these: HTM cells treated overnight with 50 μg/mL dexamethasone. The assay is classed as cell-based. (In general: In western blotting, separated proteins are transferred to a membrane and probed.)

Experimental: Expression of MYLK-4 in Cells
Human Trabecular Meshwork (HTM) cells (Cat. NO. 6590) were obtained from ScienCell Research Laboratories. HTM cells were maintained in Trabecular Meshwork Cell Medium (TMCM) (Cat. NO. 6591). TMCM formulated from 500 mL basal medium, 10 mL FBS (Cat. NO. 0010), 5 mL trabecular meshwork cell growth supplement (TMCGS, Cat. NO. 6592) and 5 mL penicillin/streptomycin solution (P/S, Cat. NO. 503). When the cell growth reached 70-80% saturation, the HTM cells were treated overnight with 50 μg/mL dexamethasone (Cat. NO. 4902, Sigma).
The expression of MYLK4 and GAPDH in cell lysates was analyzed by Western blotting method. First, the cells were collected and washed with 1×RIPA (50 mM Tris-HCl, pH 7.4, 150 mM NaCl, 0.25% deoxycholic acid, 0.1% NP-40, 1 mM EDTA, phosphatase inhibitor and protease inhibitor mixture). Next, the cell lysates were separated by SDS-PAGE (sodium dodecyl sulfate polyacrylamide gel electrophoresis) and transferred to PVDF membrane (iBlot™ 2 Transfer Stacks, polyvinylidene fluoride membrane, Invitrogen). Immunoblotting was performed on the membrane with primary antibodies (mouse anti-MYLK4 antibody (1:1,000, Cat. NO. SAB1412951) and mouse anti-GAPDH antibody (1:1,000, Cat. NO. G8795)), wherein GAPDH was used as a loading control. […]

`C[C@@H]1C[C@H]2[C@@H]3CCC4=CC(=O)C=C[C@]4(C)[C@@]3(F)[C@@H](O)C[C@]2(C)[C@@]1(O)C(=O)CO` [dexamethasone]: the “expression level of MYLK-4” value is given as “higher than that of normal HTM cells”.

The values are drawn from patent US11608319B2, “Beta-amino acid derivative, kinase inhibitor and pharmaceutical composition containing the same, and method for performing an in vivo related application that benefits from the inhibition of a kinase” (Industrial Technology Research Institute, priority 2019, dated 2023).
